The source of these data is patent publication US5672594A, “L-erythrosyl nucleosides” (Genencor International, Inc., priority 1994, dated 1997).

The subject of one series is COLO320 (colon). The series is described as follows: In vitro growth inhibition of COLO320 tumor cells (radiometric BACTEC). The series is classed as cell-based. The following applies: Homo sapiens, COLO 320, concentration required to kill 50% of the untreated cancer cells. From the text:
(§1) CELL LINES: Eight different established human cell lines CALU (lung), COLO320 (colon), H578St (breast), HT-29 (colon), MCF-7 (breast), OM-1 (colon), SKLU (lung) and SKMES (lung), and two control cell lines (bone marrow andr fibroblasts) were utilized.
(§2) All cell lines were obtained from the Tumor Cloning Laboratory, Institute for Drug Development, Cancer Therapy and Research Center, San Antonio, Tex. All cell lines grew as monolayers in the appropriate culture medium supplemented with heat-inactivated calf serum. All reagents were obtained from Grand Island Biological Co., Grand Island, N.Y. […]
(§3) RADIOMETRIC MEASUREMENT OF GROWTH INHIBITION: Growth inhibition was assessed with the BACTEC System 460 (Johnston Laboratories, Towson, Md.) after addition of the antitumor agent in the respective growth medium containing ^14 C-glucose at a final concentration of 2 μCi/ml. […]
(§4) Two mls of the tumor cell suspension containing radioactive glucose were seeded into sterile, disposable 15 ml vials by injection through self-sealing rubber-aluminum caps. […] Chemotherapy sensitivity was calculated by comparing the growth index values of drug-treated vials to that observed in control vials. […]
(§5) The data presented in Table I are compared to results achieved with 5-FU as the control. […] In this regard, a therapeutic ratio for a given compound is typically determined by the following calculation. […]

The next series relates to SKLU (lung). The series is described as follows: In vitro growth inhibition of SKLU tumor cells (radiometric BACTEC). It counts as cell-based. The following applies: Homo sapiens, concentration required to kill 50% of the untreated cancer cells.
Text: as §1, §2, §3, §4, §5

A short description of series [1]: In vitro growth inhibition/survival, bone marrow control cells (radiometric BACTEC). Conditions: human, continuous exposure (10, 1 and 0.1 μg/ml tested; concentration of this value not given). The series is classed as cell-based.
Text: as §1
(§6) All cell lines were obtained from the Tumor Cloning Laboratory, Institute for Drug Development, Cancer Therapy and Research Center, San Antonio, Tex. All cell lines grew as monolayers in the appropriate culture medium supplemented with heat-inactivated calf serum. All reagents were obtained from Grand Island Biological Co., Grand Island, N.Y.
(§7) The iv formulations of the compounds of the present invention were prepared with sterile buffered saline and stored at -70° C. until required for testing.
(§8) Following trypsinization, tumor cells were suspended in tissue culture medium and exposed to the antitumor agents continuously at three different concentrations: 10, 1 and 0.1 μg/ml.
(§9) RADIOMETRIC MEASUREMENT OF GROWTH INHIBITION: Growth inhibition was assessed with the BACTEC System 460 (Johnston Laboratories, Towson, Md.) after addition of the antitumor agent in the respective growth medium containing ^14 C-glucose at a final concentration of 2 μCi/ml.
Two mls of the tumor cell suspension containing radioactive glucose were seeded into sterile, disposable 15 ml vials by injection through self-sealing rubber-aluminum caps. […]

Another series concerns OM-1 (colon). The series can be described thus: In vitro growth inhibition of OM-1 tumor cells (radiometric BACTEC). The series is classed as cell-based. Conditions: Homo sapiens, concentration required to kill 50% of the untreated cancer cells.
Text: as §1, §2, §3, §4, §5

The conditions of series [2]: known drug, background; cited from earlier work.
The subject of another series is HS578T (breast). The series is described as follows: In vitro growth inhibition of HS578T tumor cells (radiometric BACTEC). The series is classed as cell-based. The following applies: Homo sapiens, Hs-578T, concentration required to kill 50% of the untreated cancer cells.
Text: as §1, §2, §3, §4, §5

A further series has as its system MCF-7 (breast). The series is described as follows: In vitro growth inhibition of MCF-7 tumor cells (radiometric BACTEC). Conditions: for IC50: Homo sapiens, MCF7. It counts as cell-based, human.
Text: as §1, §6, §7, §8, §9
(§10) Two mls of the tumor cell suspension containing radioactive glucose were seeded into sterile, disposable 15 ml vials by injection through self-sealing rubber-aluminum caps. […] The seeded vials were then incubated at 37° C. Measurement of the release of ^14 CO2 resulting from the metabolism of ^14 C-glucose were performed on days 6, 9, 12, and 15 in the BACTEC instrument. This instrument flushes the ^14 CO2 containing air out of the vials into an ionization chamber that converts dpm to growth index values. […] Each data point represents triplicate values.
(§11) All compounds were dosed on an equimilimolar basis. […] [formula]

A further series relates to HT29 (colon). The series can be described thus: In vitro growth inhibition of HT29 tumor cells (radiometric BACTEC). Conditions: Homo sapiens, HT-29, concentration required to kill 50% of the untreated cancer cells. The series is classed as cell-based.
Text: as §1, §2, §3, §4, §5

The subject of a further series is SKMES (lung). The series can be described thus: In vitro growth inhibition of SKMES tumor cells (radiometric BACTEC). It counts as cell-based, human. The following applies: for IC50: Homo sapiens.
Text: as §1, §6, §7, §8, §9, §10, §11

A further series concerns CALU (lung). The series can be described thus: In vitro growth inhibition of CALU tumor cells (radiometric BACTEC). It counts as cell-based, human. Conditions: for IC50: Homo sapiens.
Text: as §1, §6, §7, §8, §9, §10, §11

≈ marks a conversion by molar mass, not a printed value. Like-named read-outs stand apart in the source and are kept apart here. Where only a bound is given, the exact number is not on record here.

As for `O=c1[nH]cc(F)c(=O)[nH]1` [5-FU, 5-fluorouracil], the IC50 is less than 0.6 µg/mL in the series with COLO320 (colon); 1.05 µg/mL (≈ 8.06 µM) in the series on SKLU (lung); 1.47 µg/mL (≈ 11.3 µM) in the series with OM-1 (colon); more than 0.6 µg/mL with HS578T (breast); less than 0.6 µg/mL in the series with MCF-7 (breast); 0.613 µg/mL (≈ 4.71 µM) with HT29 (colon). Further, the IC50 in the series on SKMES (lung) and with CALU (lung) was less than 0.6 µg/mL in each case. The viability in series [1] turned out to be 38.6%. Also, the side effects result in series [2] is listed as “nausea, vomiting, diarrhea, leukopenia, thrombocytopenia, alopecia”.
`O=c1[nH]c(=O)n([C@@H]2OC[C@H](O)[C@@H]2O)cc1F` [α-L-erythrofuranosyl-5-fluorouracil]: the viability in [1] worked out at 104%. Moreover, the IC50 in the series on MCF-7 (breast) (MCF-7, concentration required to kill 50% of the untreated cancer cells, read-out: IC 50) is more than 10 µg/mL; with SKMES (lung) (SKMES, concentration required to kill 50% of the untreated cancer cells, read-out: IC 50), more than 10 µg/mL; with CALU (lung) (CALU, concentration required to kill 50% of the untreated cancer cells, read-out: IC 50) it was more than 10 µg/mL. Also, the “% SURVIVAL TUMOR” value with MCF-7 (breast) (MCF-7, continuous exposure, concentration of this value not given) was 52.7%; in the series with SKMES (lung) (SKMES, continuous exposure, concentration of this value not given) it was 67.4%; in the series with CALU (lung) (CALU, continuous exposure (10, 1 and 0.1 μg/ml tested; concentration of this value not given)), 85.3%.
